Laboratory results reported in ChEMBL document CHEMBL5331123, “Potent Dual Inhibitors of Steroid Sulfatase and 17β-Hydroxysteroid Dehydrogenase Type 1 with a Suitable Pharmacokinetic Profile for In Vivo Proof-of-Principle Studies in an Endometriosis Mouse Model” (J Med Chem, 2023).
≈ marks a conversion by molar mass, not a printed value.

Target: T1, Steryl-sulfatase (Homo sapiens, UniProt P08842)
T1 sequence (P08842 whole entry): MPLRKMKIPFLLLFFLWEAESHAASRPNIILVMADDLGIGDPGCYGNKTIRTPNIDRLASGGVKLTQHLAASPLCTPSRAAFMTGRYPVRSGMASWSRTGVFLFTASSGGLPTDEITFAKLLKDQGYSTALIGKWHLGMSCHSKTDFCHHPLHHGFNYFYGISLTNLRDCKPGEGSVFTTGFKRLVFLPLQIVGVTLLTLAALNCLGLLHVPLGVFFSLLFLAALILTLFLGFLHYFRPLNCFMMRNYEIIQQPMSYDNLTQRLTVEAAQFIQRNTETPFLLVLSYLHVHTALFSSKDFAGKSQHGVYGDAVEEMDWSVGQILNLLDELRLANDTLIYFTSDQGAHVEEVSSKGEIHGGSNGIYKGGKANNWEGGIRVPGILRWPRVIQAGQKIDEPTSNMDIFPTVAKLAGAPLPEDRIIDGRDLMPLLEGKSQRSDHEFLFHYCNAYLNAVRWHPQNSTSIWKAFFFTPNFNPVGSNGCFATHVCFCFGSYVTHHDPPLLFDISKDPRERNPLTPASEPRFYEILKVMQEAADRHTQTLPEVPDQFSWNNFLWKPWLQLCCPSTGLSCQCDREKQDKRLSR
Assay: Inhibition of human STS expressed in human T47D cells using [3H]E1S as substrate incubated for 1 hr followed by substrate addition measured after 24 hrs in presence of E1S by HPLC analysis
Type: cell-based
Conditions: not given

| IC50 [nM] | Compound |
| --- | --- |
| 92 | Cc1cc(-c2ccc(C(=O)N(C)c3cccc(OS(N)(=O)=O)c3)o2)cc(C)c1O |
| 150 | Cc1cc(-c2ccc(C(=O)N(C)c3ccc(OS(N)(=O)=O)cc3)o2)cc(C)c1O |

| Compound | IC50 [nM] |
| --- | --- |
| Cc1cc(OS(N)(=O)=O)c(Cl)cc1N(C)C(=O)c1ccc(-c2cc(C)c(O)c(C)c2)o1 | 76 |

Target: T2, 17-beta-hydroxysteroid dehydrogenase type 1 (Homo sapiens, UniProt P14061)
T2 sequence (P14061 whole entry): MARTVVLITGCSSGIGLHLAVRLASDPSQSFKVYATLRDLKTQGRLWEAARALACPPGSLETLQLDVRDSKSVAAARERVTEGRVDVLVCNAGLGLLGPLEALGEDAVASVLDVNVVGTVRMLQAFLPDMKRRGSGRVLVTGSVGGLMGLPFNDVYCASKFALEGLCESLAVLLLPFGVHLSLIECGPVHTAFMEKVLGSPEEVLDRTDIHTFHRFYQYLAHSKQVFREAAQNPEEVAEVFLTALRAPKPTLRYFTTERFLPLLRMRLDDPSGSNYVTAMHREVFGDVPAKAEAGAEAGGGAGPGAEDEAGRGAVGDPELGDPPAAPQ
Assay: Inhibition of human 17beta-HSD1 expressed in human T47D cells using [3H]E1 as substrate incubated for 1 hr followed by substrate addition measured after 40 mins in presence of E1 by HPLC analysis
Type: cell-based
Conditions: not given

| IC50 [nM] | Compound |
| --- | --- |
| 80 | Cc1cc(-c2ccc(C(=O)N(C)c3cccc(OS(N)(=O)=O)c3)o2)cc(C)c1O |
| 110 | Cc1cc(-c2ccc(C(=O)N(C)c3ccc(OS(N)(=O)=O)cc3)o2)cc(C)c1O |

| Compound | IC50 [nM] |
| --- | --- |
| Cc1cc(OS(N)(=O)=O)c(Cl)cc1N(C)C(=O)c1ccc(-c2cc(C)c(O)c(C)c2)o1 | 53 |

System: not listed separately
Assay: Metabolic stability in human liver S9 fraction assessed as half life measured upto 60 mins in presence of NADPH by LC-MS/MS analysis
Type: ADME, subcellular
Conditions: liver S9 fraction

| Compound | half-life [min] |
| --- | --- |
| Cc1cc(OS(N)(=O)=O)c(Cl)cc1N(C)C(=O)c1ccc(-c2cc(C)c(O)c(C)c2)o1 | 35.6 |

System: not listed separately
Assay: Metabolic stability in mouse liver S9 fraction assessed as half life measured upto 60 mins in presence of NADPH by LC-MS/MS analysis
Type: ADME, subcellular
Conditions: liver S9 fraction

| Compound | half-life [min] |
| --- | --- |
| Cc1cc(OS(N)(=O)=O)c(Cl)cc1N(C)C(=O)c1ccc(-c2cc(C)c(O)c(C)c2)o1 | 22.5 |

Target: T2, 17-beta-hydroxysteroid dehydrogenase type 1
Assay: Inhibition of human placental cytosolic fraction 17beta-HSD1 using [3H]E1 as substrate measured after 10 mins in presence of NADH by HPLC analysis
Type: tissue-based, Placenta
Conditions: not given

| IC50 [nM] | Compound |
| --- | --- |
| 180 | Cc1cc(-c2ccc(C(=O)N(C)c3cccc(OS(N)(=O)=O)c3)o2)cc(C)c1O |
| 430 | Cc1cc(-c2ccc(C(=O)N(C)c3ccc(OS(N)(=O)=O)cc3)o2)cc(C)c1O |

| Compound | IC50 [nM] |
| --- | --- |
| Cc1cc(OS(N)(=O)=O)c(Cl)cc1N(C)C(=O)c1ccc(-c2cc(C)c(O)c(C)c2)o1 | 68 |

Target: T3, 17-beta-hydroxysteroid dehydrogenase type 2 (Homo sapiens, UniProt P37059)
T3 sequence (P37059 whole entry): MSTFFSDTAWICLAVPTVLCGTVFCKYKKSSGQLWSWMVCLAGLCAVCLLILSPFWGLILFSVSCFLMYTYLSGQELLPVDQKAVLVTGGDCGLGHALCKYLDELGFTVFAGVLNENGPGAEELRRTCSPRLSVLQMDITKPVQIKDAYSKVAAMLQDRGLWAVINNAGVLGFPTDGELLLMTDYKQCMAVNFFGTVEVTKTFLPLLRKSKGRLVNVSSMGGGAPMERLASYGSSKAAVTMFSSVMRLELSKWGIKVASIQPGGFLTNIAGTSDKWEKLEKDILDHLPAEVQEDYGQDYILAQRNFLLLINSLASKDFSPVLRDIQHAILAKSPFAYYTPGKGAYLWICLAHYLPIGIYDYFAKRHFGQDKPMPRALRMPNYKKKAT
Assay: Inhibition of human placental microsomal fraction 17beta-HSD2 using [3H]E2 as substrate measured after 20 mins in presence of NAD+ by HPLC analysis
Type: microsomes, Placenta, Microsome
Conditions: not given

| IC50 [nM] | Compound |
| --- | --- |
| 6400 | Cc1cc(-c2ccc(C(=O)N(C)c3cccc(OS(N)(=O)=O)c3)o2)cc(C)c1O |
| 7700 | Cc1cc(-c2ccc(C(=O)N(C)c3ccc(OS(N)(=O)=O)cc3)o2)cc(C)c1O |

| Compound | IC50 [nM] |
| --- | --- |
| Cc1cc(OS(N)(=O)=O)c(Cl)cc1N(C)C(=O)c1ccc(-c2cc(C)c(O)c(C)c2)o1 | 7500 |

Organism: Homo sapiens
Assay: Selectivity ratio of IC50 for human placental microsomal fraction 17beta-HSD2 to IC50 for human placental microsomal fraction 17beta-HSD1
Conditions: not given

| Ratio IC50 | Compound |
| --- | --- |
| 36 | Cc1cc(-c2ccc(C(=O)N(C)c3cccc(OS(N)(=O)=O)c3)o2)cc(C)c1O |
| 18 | Cc1cc(-c2ccc(C(=O)N(C)c3ccc(OS(N)(=O)=O)cc3)o2)cc(C)c1O |

| Compound | Ratio IC50 |
| --- | --- |
| Cc1cc(OS(N)(=O)=O)c(Cl)cc1N(C)C(=O)c1ccc(-c2cc(C)c(O)c(C)c2)o1 | 110 |

Target: T1, Steryl-sulfatase
Assay: Irreversible inhibition of human STS expressed in human T47D cells using [3H]E1S as substrate preincubated for 2 hr followed by substrate addition measured after 24 hrs in presence of E1S by HPLC analysis
Type: cell-based
Conditions: not given

| Compound | IC50 [nM] |
| --- | --- |
| Cc1cc(OS(N)(=O)=O)c(Cl)cc1N(C)C(=O)c1ccc(-c2cc(C)c(O)c(C)c2)o1 | 79 |

System: not listed separately
Assay: Metabolic stability in human liver S9 fraction assessed as intrinsic clearance measured upto 60 mins in presence of NADPH by LC-MS/MS analysis
Type: ADME, subcellular
Conditions: read-out: CLH

| Compound | microsomal CLint [µL/min/mg] |
| --- | --- |
| Cc1cc(OS(N)(=O)=O)c(Cl)cc1N(C)C(=O)c1ccc(-c2cc(C)c(O)c(C)c2)o1 | 19.4 |

System: HEK293
Assay: Cytotoxicity against HEK293 cells assessed as cell growth inhibition by measuring lethal concentration measured after 72 hrs by MTT assay
Type: functional, Homo sapiens
Conditions: not given

| Compound | LC20 |
| --- | --- |
| Cc1cc(OS(N)(=O)=O)c(Cl)cc1N(C)C(=O)c1ccc(-c2cc(C)c(O)c(C)c2)o1 | <=27 uM |

System: HepG2
Assay: Cytotoxicity against human HepG2 cells assessed as cell growth inhibition by measuring lethal concentration measured after 48 hrs by MTT assay
Type: functional
Conditions: not given

| Compound | LC20 [nM] |
| --- | --- |
| Cc1cc(OS(N)(=O)=O)c(Cl)cc1N(C)C(=O)c1ccc(-c2cc(C)c(O)c(C)c2)o1 | 31000 |

System: not listed separately
Assay: Observed Cmax in C57BL/6 mouse at 50 mg/kg, sc administered as single dose measured upto 24 hrs by HPLC-MS/MS analysis
Type: ADME, organism-based
Design: time < 24 hrs, dose 50 mg/kg, route sc
Conditions: in vivo

| Compound | Cmax [nM] |
| --- | --- |
| Cc1cc(OS(N)(=O)=O)c(Cl)cc1N(C)C(=O)c1ccc(-c2cc(C)c(O)c(C)c2)o1 | 400 |

System: not listed separately
Assay: Drug concentration in C57BL/6 mouse at 50 mg/kg, sc administered as single dose measured after 24 hrs by HPLC-MS/MS analysis
Type: ADME, organism-based
Conditions: in vivo, read-out: Drug uptake

| Compound | concentration at 24 h [nM] |
| --- | --- |
| Cc1cc(OS(N)(=O)=O)c(Cl)cc1N(C)C(=O)c1ccc(-c2cc(C)c(O)c(C)c2)o1 | 62 |

System: not listed separately
Assay: Half life in C57BL/6 mouse at 50 mg/kg, sc administered as single dose measured after 24 hrs by HPLC-MS/MS analysis
Type: ADME, organism-based
Conditions: in vivo

| Compound | half-life [min] |
| --- | --- |
| Cc1cc(OS(N)(=O)=O)c(Cl)cc1N(C)C(=O)c1ccc(-c2cc(C)c(O)c(C)c2)o1 | 169 |

System: not listed separately
Assay: AUC(0 to 24 hrs) in C57BL/6 mouse at 50 mg/kg, sc administered as single dose measured after 24 hrs by HPLC-MS/MS analysis
Type: ADME, organism-based
Design: time 24 hrs, dose 50 mg/kg, route sc
Conditions: in vivo

| Compound | AUC(0-t) at 24 h [ng·h/mL] |
| --- | --- |
| Cc1cc(OS(N)(=O)=O)c(Cl)cc1N(C)C(=O)c1ccc(-c2cc(C)c(O)c(C)c2)o1 | 1900 |

System: not listed separately
Assay: Lipophilicity, logD of compound at pH 7.4
Type: physicochemical
Conditions: buffer

| Compound | logD |
| --- | --- |
| Cc1cc(OS(N)(=O)=O)c(Cl)cc1N(C)C(=O)c1ccc(-c2cc(C)c(O)c(C)c2)o1 | 2.75 |

System: not listed separately
Assay: Aqueous solubility of compound in PBS measured after 1 to 24 hrs
Type: physicochemical
Conditions: time 1-24 hrs

| Compound | solubility [µM] |
| --- | --- |
| Cc1cc(OS(N)(=O)=O)c(Cl)cc1N(C)C(=O)c1ccc(-c2cc(C)c(O)c(C)c2)o1 | 20 (≈ 9.3 µg/mL) |
